Measurements: article PMC12670405, “Second-Generation AURKA-Targeting PROTACs: Structural Optimization toward in Vivo Degradation in Neuroblastoma” (Journal of Medicinal Chemistry, 2025)

Columns and labels:
Assay in all cases: KINOMEscan scanMAX
Assay type in all cases: binding
NEK6 = biological target: T1, NEK6 (Homo sapiens, UniProt Q9HC98); details: read-out: Percent Control
T1 construct: purchased Eurofins Discovery (DiscoverX KINOMEscan scanMAX)
Experimental: (§1) The kinome-wide binding assay was performed by Eurofins Discovery using the scanMAX screening platform. More information can be found on the Eurofins Discovery Web site.

PHKG1 = biological target: T2, PHKG1 (Homo sapiens, UniProt Q16816); details: read-out: Percent Control
T2 construct: purchased Eurofins Discovery (DiscoverX KINOMEscan scanMAX)
Experimental: as §1

SGK2 = biological target: T3, SGK2 (Homo sapiens, UniProt Q9HBY8); details: read-out: Percent Control
T3 construct: purchased Eurofins Discovery (DiscoverX KINOMEscan scanMAX)
Experimental: as §1

S6K1 = biological target: T4, S6K1 (Homo sapiens, UniProt P23443); details: read-out: Percent Control
T4 construct: purchased Eurofins Discovery (DiscoverX KINOMEscan scanMAX)
Experimental: as §1

IRAK1 = biological target: T5, IRAK1 (Homo sapiens, UniProt P51617); details: read-out: Percent Control
T5 construct: purchased Eurofins Discovery (DiscoverX KINOMEscan scanMAX)
Experimental: as §1

MAK = biological target: T6, MAK (Homo sapiens, UniProt P20794); details: read-out: Percent Control
T6 construct: purchased Eurofins Discovery (DiscoverX KINOMEscan scanMAX)
Experimental: as §1

AKT1 = biological target: T7, AKT1 (Homo sapiens, UniProt P31749); details: read-out: Percent Control
T7 construct: purchased Eurofins Discovery (DiscoverX KINOMEscan scanMAX)
Experimental: as §1

GRK2 = biological target: T8, GRK2 (Homo sapiens, UniProt P25098); details: read-out: Percent Control
T8 construct: purchased Eurofins Discovery (DiscoverX KINOMEscan scanMAX)
Experimental: as §1

[1] = biological target: T9, ABL1(Q252H)-nonphosphorylated (Homo sapiens, UniProt P00519, Q252H); details: read-out: Percent Control
T9 construct: purchased Eurofins Discovery (DiscoverX KINOMEscan scanMAX)
Experimental: as §1

MAP3K1 = biological target: T10, MAP3K1 (Homo sapiens, UniProt Q13233); details: read-out: Percent Control
T10 construct: purchased Eurofins Discovery (DiscoverX KINOMEscan scanMAX)
Experimental: as §1

IKK-alpha = biological target: T11, IKK-alpha (Homo sapiens, UniProt O15111); details: read-out: Percent Control
T11 construct: purchased Eurofins Discovery (DiscoverX KINOMEscan scanMAX)
Experimental: as §1

MAST1 = biological target: T12, MAST1 (Homo sapiens, UniProt Q9Y2H9); details: read-out: Percent Control
T12 construct: purchased Eurofins Discovery (DiscoverX KINOMEscan scanMAX)
Experimental: as §1

EGFR(L858R,T790M) = biological target: T13, EGFR(L858R,T790M) (Homo sapiens, UniProt P00533, L858R/T790M); details: read-out: Percent Control
T13 construct: purchased Eurofins Discovery (DiscoverX KINOMEscan scanMAX)
Experimental: as §1

EPHA2 = biological target: T14, EPHA2 (Homo sapiens, UniProt P29317); details: read-out: Percent Control
T14 construct: purchased Eurofins Discovery (DiscoverX KINOMEscan scanMAX)
Experimental: as §1

PFPK5(P.falciparum) = biological target: T15, PFPK5(P.falciparum) (Plasmodium falciparum, UniProt P61075); details: read-out: Percent Control
T15 construct: purchased Eurofins Discovery (DiscoverX KINOMEscan scanMAX)
Experimental: as §1

IKK-epsilon = biological target: T16, IKK-epsilon (Homo sapiens, UniProt Q14164); details: read-out: Percent Control
T16 construct: purchased Eurofins Discovery (DiscoverX KINOMEscan scanMAX)
Experimental: as §1

PIP5K2B = biological target: T17, PIP5K2B (Homo sapiens, UniProt P78356); details: read-out: Percent Control
T17 construct: purchased Eurofins Discovery (DiscoverX KINOMEscan scanMAX)
Experimental: as §1

BRK = biological target: T18, BRK (Homo sapiens, UniProt Q13882); details: read-out: Percent Control
T18 construct: purchased Eurofins Discovery (DiscoverX KINOMEscan scanMAX)
Experimental: as §1

CAMKK2 = biological target: T19, CAMKK2 (Homo sapiens, UniProt Q96RR4); details: read-out: Percent Control
T19 construct: purchased Eurofins Discovery (DiscoverX KINOMEscan scanMAX)
Experimental: as §1

PRKD2 = biological target: T20, PRKD2 (Homo sapiens, UniProt Q9BZL6); details: read-out: Percent Control
T20 construct: purchased Eurofins Discovery (DiscoverX KINOMEscan scanMAX)
Experimental: as §1

PRKCD = biological target: T21, PRKCD (Homo sapiens, UniProt Q05655); details: read-out: Percent Control
T21 construct: purchased Eurofins Discovery (DiscoverX KINOMEscan scanMAX)
Experimental: as §1

FLT3(ITD,F691L) = tested on: FLT3(ITD,F691L)
Experimental: as §1

PIK3CA(H1047L) = biological target: T22, PIK3CA(H1047L) (Homo sapiens, UniProt P42336, H1047L); details: read-out: Percent Control
T22 construct: purchased Eurofins Discovery (DiscoverX KINOMEscan scanMAX)
Experimental: as §1

[2] = biological target: T23, RSK2(Kin.Dom.2-C-terminal) (Homo sapiens, UniProt P51812); details: read-out: Percent Control
T23 construct: RSK2(Kin.Dom.2-C-terminal); purchased Eurofins Discovery (DiscoverX KINOMEscan scanMAX)
Experimental: as §1

PIK3CB = biological target: T24, PIK3CB (Homo sapiens, UniProt P42338); details: read-out: Percent Control
T24 construct: purchased Eurofins Discovery (DiscoverX KINOMEscan scanMAX)
Experimental: as §1

TIE2 = biological target: T25, TIE2 (Homo sapiens, UniProt Q02763); details: read-out: Percent Control
T25 construct: purchased Eurofins Discovery (DiscoverX KINOMEscan scanMAX)
Experimental: as §1

PRKCQ = biological target: T26, PRKCQ (Homo sapiens, UniProt Q04759); details: read-out: Percent Control
T26 construct: purchased Eurofins Discovery (DiscoverX KINOMEscan scanMAX)
Experimental: as §1

NEK5 = biological target: T27, NEK5 (Homo sapiens, UniProt Q6P3R8); details: read-out: Percent Control
T27 construct: purchased Eurofins Discovery (DiscoverX KINOMEscan scanMAX)
Experimental: as §1

SRPK2 = biological target: T28, SRPK2 (Homo sapiens, UniProt P78362); details: read-out: Percent Control
T28 construct: purchased Eurofins Discovery (DiscoverX KINOMEscan scanMAX)
Experimental: as §1

CAMK4 = biological target: T29, CAMK4 (Homo sapiens, UniProt Q16566); details: read-out: Percent Control
T29 construct: purchased Eurofins Discovery (DiscoverX KINOMEscan scanMAX)
Experimental: as §1

YSK4 = biological target: T30, YSK4 (Homo sapiens, UniProt Q56UN5); details: read-out: Percent Control
T30 construct: purchased Eurofins Discovery (DiscoverX KINOMEscan scanMAX)
Experimental: as §1

MYLK4 = biological target: T31, MYLK4 (Homo sapiens, UniProt Q86YV6); details: read-out: Percent Control
T31 construct: purchased Eurofins Discovery (DiscoverX KINOMEscan scanMAX)
Experimental: as §1

PCTK2 = biological target: T32, PCTK2 (Homo sapiens, UniProt Q00537); details: read-out: Percent Control
T32 construct: purchased Eurofins Discovery (DiscoverX KINOMEscan scanMAX)
Experimental: as §1

p38-gamma = biological target: T33, p38-gamma (Homo sapiens, UniProt P53778); details: read-out: Percent Control
T33 construct: purchased Eurofins Discovery (DiscoverX KINOMEscan scanMAX)
Experimental: as §1

T25 sequence (Q02763 23-1124): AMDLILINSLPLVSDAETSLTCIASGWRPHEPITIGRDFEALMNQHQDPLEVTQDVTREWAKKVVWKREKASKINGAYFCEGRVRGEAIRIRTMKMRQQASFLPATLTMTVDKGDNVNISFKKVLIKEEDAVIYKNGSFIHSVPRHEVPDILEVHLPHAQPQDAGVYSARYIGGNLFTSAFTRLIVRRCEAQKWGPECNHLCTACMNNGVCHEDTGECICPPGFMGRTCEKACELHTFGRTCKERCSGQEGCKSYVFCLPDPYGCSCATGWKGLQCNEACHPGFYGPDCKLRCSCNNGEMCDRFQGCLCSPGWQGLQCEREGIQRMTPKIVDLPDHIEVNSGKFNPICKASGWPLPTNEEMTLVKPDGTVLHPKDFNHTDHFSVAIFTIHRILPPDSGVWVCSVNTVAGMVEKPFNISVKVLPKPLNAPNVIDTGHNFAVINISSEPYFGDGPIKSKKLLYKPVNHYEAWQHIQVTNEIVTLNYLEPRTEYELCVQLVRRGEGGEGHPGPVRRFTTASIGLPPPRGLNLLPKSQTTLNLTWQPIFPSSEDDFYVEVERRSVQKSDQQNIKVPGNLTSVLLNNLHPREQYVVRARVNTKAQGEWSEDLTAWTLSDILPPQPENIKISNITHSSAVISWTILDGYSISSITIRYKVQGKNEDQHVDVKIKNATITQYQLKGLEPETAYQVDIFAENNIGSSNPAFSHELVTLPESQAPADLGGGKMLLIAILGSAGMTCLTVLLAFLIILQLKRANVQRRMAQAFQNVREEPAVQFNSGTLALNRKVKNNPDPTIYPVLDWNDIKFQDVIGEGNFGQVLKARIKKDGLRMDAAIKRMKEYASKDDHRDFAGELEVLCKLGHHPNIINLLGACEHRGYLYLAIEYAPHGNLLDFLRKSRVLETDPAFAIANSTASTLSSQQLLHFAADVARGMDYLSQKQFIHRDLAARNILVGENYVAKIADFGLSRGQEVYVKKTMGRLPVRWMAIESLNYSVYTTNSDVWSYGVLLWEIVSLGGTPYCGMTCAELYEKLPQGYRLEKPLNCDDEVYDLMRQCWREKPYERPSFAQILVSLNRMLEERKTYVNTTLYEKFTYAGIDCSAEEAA
T15 sequence (P61075 whole entry): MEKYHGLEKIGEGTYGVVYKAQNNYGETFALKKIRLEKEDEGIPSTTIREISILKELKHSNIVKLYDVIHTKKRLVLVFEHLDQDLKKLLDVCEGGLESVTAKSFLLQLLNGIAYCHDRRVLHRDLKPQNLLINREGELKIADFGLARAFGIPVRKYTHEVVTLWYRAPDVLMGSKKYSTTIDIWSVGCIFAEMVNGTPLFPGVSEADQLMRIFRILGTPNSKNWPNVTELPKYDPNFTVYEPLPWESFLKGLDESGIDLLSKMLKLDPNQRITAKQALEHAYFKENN
T28 sequence (P78362 whole entry): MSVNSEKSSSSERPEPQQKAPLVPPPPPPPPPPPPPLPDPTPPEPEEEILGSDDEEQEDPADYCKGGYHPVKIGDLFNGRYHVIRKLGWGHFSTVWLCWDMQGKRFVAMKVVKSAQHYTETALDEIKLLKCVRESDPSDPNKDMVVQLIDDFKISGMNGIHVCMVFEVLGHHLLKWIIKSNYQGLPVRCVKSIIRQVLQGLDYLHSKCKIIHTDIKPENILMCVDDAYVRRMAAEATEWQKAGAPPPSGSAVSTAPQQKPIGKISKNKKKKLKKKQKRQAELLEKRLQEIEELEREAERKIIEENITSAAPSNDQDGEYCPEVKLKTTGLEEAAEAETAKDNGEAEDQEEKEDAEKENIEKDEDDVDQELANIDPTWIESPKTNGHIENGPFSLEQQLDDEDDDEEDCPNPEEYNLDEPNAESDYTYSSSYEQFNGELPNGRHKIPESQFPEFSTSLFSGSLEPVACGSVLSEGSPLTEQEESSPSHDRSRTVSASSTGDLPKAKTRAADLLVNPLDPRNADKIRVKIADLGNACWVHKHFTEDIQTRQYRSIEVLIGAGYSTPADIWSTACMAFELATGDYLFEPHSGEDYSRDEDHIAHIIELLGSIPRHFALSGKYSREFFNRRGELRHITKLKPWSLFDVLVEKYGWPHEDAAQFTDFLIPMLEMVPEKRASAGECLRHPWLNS
T8 sequence (P25098 whole entry): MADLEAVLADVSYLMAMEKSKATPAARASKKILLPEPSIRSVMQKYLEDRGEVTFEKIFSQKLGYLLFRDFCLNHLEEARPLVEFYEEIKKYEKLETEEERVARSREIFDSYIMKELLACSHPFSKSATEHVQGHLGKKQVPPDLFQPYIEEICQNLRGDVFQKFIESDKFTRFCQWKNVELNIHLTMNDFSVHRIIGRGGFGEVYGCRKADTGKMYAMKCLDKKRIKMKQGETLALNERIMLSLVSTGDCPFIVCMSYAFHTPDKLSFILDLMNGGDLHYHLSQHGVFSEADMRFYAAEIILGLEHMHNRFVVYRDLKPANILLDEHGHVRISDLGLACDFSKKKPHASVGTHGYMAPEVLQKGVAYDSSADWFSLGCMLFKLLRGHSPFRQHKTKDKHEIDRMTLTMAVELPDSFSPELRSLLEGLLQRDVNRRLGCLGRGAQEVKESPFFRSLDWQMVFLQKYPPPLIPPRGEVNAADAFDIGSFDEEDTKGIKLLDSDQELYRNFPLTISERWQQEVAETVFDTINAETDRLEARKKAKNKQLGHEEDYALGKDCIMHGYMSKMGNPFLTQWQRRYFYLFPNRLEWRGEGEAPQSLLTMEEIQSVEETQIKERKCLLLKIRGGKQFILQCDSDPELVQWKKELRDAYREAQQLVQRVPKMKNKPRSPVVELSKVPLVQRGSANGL
T11 sequence (O15111 whole entry): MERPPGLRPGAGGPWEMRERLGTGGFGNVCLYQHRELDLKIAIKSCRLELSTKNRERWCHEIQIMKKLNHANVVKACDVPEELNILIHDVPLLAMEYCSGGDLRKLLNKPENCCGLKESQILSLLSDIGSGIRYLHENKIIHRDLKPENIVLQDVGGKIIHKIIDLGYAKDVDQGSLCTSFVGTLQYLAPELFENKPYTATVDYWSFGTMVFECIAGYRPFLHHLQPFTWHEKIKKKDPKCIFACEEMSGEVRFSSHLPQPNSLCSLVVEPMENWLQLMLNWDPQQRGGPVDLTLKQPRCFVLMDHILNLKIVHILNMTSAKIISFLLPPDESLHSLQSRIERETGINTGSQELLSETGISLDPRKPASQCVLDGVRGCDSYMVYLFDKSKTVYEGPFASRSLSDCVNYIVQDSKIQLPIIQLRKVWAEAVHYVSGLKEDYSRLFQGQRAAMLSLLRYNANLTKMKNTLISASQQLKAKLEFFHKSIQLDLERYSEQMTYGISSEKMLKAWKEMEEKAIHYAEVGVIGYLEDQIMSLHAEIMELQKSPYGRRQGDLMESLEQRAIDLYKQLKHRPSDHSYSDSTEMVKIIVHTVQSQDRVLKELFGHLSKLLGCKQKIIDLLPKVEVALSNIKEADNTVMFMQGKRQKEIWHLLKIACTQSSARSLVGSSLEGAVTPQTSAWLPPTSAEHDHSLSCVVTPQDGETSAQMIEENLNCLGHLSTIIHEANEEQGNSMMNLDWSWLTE
T13 sequence (P00533 25-1210 T790M/L858R): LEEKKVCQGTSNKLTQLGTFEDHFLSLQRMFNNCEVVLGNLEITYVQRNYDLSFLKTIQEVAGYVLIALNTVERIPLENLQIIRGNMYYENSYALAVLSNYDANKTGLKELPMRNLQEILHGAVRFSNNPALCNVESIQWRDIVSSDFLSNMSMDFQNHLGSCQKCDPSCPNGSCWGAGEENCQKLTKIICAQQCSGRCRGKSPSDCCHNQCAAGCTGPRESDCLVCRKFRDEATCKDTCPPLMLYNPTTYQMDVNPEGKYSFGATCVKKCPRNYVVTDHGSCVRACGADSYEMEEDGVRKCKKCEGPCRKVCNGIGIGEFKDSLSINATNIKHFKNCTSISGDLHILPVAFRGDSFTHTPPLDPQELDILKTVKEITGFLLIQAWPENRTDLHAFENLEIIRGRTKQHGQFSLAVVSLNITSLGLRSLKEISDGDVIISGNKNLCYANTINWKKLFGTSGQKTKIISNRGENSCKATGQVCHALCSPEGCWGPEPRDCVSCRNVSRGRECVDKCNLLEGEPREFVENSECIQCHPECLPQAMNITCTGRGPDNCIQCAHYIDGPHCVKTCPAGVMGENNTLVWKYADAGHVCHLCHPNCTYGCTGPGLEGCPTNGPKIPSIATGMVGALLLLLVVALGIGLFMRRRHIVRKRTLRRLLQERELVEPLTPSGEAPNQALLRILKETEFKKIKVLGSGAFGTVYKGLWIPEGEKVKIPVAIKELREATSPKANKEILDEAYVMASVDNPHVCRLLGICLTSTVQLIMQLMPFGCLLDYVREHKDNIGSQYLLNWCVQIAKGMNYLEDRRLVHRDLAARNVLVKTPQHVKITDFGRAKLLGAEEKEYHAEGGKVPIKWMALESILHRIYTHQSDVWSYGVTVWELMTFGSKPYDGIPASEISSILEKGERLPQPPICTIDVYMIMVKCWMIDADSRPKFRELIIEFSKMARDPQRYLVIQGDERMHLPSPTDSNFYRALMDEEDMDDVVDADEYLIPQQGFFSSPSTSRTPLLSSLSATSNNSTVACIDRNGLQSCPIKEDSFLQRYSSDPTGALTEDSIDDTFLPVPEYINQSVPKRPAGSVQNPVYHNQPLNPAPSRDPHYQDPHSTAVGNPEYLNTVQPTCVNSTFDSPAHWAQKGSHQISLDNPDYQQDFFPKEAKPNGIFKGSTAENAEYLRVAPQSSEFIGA
T23 sequence (P51812 398-740 limits assumed): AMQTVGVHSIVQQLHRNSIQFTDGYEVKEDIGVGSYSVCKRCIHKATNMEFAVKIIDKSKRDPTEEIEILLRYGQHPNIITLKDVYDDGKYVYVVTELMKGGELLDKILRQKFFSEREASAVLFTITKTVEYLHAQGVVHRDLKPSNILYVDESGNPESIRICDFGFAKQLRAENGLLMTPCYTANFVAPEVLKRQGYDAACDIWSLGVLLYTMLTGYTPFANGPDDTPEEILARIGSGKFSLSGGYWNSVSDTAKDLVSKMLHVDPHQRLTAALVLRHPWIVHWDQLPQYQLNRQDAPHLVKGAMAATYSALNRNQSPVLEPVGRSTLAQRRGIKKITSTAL

SMILES: Cc1cc(Nc2ccc(F)c(CC3(C(=O)N4CCC(F)(CN5CCN(c6ccc(N7CCC(=O)NC7=O)cn6)CC5)CC4)CCN(Cc4cccc(Cl)c4F)CC3)n2)n[nH]1 [SK5527]
- remaining binding at 0.1 µM (NEK6; 100 nM): 96%
- remaining binding at 1 µM (NEK6; 1000 nM): 54%
- remaining binding at 0.1 µM (PHKG1; 100 nM): 99%
- remaining binding at 1 µM (PHKG1; 1000 nM): 100%
- remaining binding at 0.1 µM (SGK2; 100 nM): 93%
- remaining binding at 1 µM (SGK2; 1000 nM): 83%
- remaining binding at 0.1 µM (S6K1; 100 nM): 100%
- remaining binding at 1 µM (S6K1; 1000 nM): 100%
- remaining binding at 0.1 µM (IRAK1; 100 nM): 94%
- remaining binding at 1 µM (IRAK1; 1000 nM): 76%
- remaining binding at 0.1 µM (MAK; 100 nM): 100%
- remaining binding at 1 µM (MAK; 1000 nM): 100%
- remaining binding at 0.1 µM (AKT1; 100 nM): 78%
- remaining binding at 1 µM (AKT1; 1000 nM): 100%
- remaining binding at 0.1 µM (GRK2; 100 nM): 100%
- remaining binding at 1 µM (GRK2; 1000 nM): 100%
- remaining binding at 0.1 µM ([1]; 100 nM): 63%
- remaining binding at 1 µM ([1]; 1000 nM): 15%
- remaining binding at 0.1 µM (MAP3K1; 100 nM): 93%
- remaining binding at 1 µM (MAP3K1; 1000 nM): 60%
- remaining binding at 0.1 µM (IKK-alpha; 100 nM): 100%
- remaining binding at 1 µM (IKK-alpha; 1000 nM): 100%
- remaining binding at 0.1 µM (MAST1; 100 nM): 72%
- remaining binding at 1 µM (MAST1; 1000 nM): 100%
- remaining binding at 0.1 µM (EGFR(L858R,T790M); 100 nM): 82%
- remaining binding at 1 µM (EGFR(L858R,T790M); 1000 nM): 87%
- remaining binding at 0.1 µM (EPHA2; 100 nM): 100%
- remaining binding at 1 µM (EPHA2; 1000 nM): 100%
- remaining binding at 0.1 µM (PFPK5(P.falciparum); 100 nM): 89%
- remaining binding at 1 µM (PFPK5(P.falciparum); 1000 nM): 80%
- remaining binding at 0.1 µM (IKK-epsilon; 100 nM): 75%
- remaining binding at 1 µM (IKK-epsilon; 1000 nM): 67%
- remaining binding at 0.1 µM (PIP5K2B; 100 nM): 100%
- remaining binding at 1 µM (PIP5K2B; 1000 nM): 100%
- remaining binding at 0.1 µM (BRK; 100 nM): 92%
- remaining binding at 1 µM (BRK; 1000 nM): 88%
- remaining binding at 0.1 µM (CAMKK2; 100 nM): 100%
- remaining binding at 1 µM (CAMKK2; 1000 nM): 100%
- remaining binding at 0.1 µM (PRKD2; 100 nM): 78%
- remaining binding at 1 µM (PRKD2; 1000 nM): 90%
- remaining binding at 0.1 µM (PRKCD; 100 nM): 100%
- remaining binding at 1 µM (PRKCD; 1000 nM): 100%
- Percent Control (FLT3(ITD,F691L); 100 nM): 100%
- Percent Control (FLT3(ITD,F691L); 1000 nM): 75%
- remaining binding at 0.1 µM (PIK3CA(H1047L); 100 nM): 63%
- remaining binding at 1 µM (PIK3CA(H1047L); 1000 nM): 100%
- remaining binding at 0.1 µM ([2]; 100 nM): 82%
- remaining binding at 1 µM ([2]; 1000 nM): 89%
- remaining binding at 0.1 µM (PIK3CB; 100 nM): 78%
- remaining binding at 1 µM (PIK3CB; 1000 nM): 95%
- remaining binding at 0.1 µM (TIE2; 100 nM): 100%
- remaining binding at 1 µM (TIE2; 1000 nM): 100%
- remaining binding at 0.1 µM (PRKCQ; 100 nM): 100%
- remaining binding at 1 µM (PRKCQ; 1000 nM): 94%
- remaining binding at 0.1 µM (NEK5; 100 nM): 100%
- remaining binding at 1 µM (NEK5; 1000 nM): 100%
- remaining binding at 0.1 µM (SRPK2; 100 nM): 93%
- remaining binding at 1 µM (SRPK2; 1000 nM): 79%
- remaining binding at 0.1 µM (CAMK4; 100 nM): 100%
- remaining binding at 1 µM (CAMK4; 1000 nM): 100%
- remaining binding at 0.1 µM (YSK4; 100 nM): 72%
- remaining binding at 1 µM (YSK4; 1000 nM): 72%
- remaining binding at 0.1 µM (MYLK4; 100 nM): 100%
- remaining binding at 1 µM (MYLK4; 1000 nM): 100%
- remaining binding at 0.1 µM (PCTK2; 100 nM): 100%
- remaining binding at 1 µM (PCTK2; 1000 nM): 100%
- remaining binding at 0.1 µM (p38-gamma; 100 nM): 97%
- remaining binding at 1 µM (p38-gamma; 1000 nM): 87%
